Results reported in US10111435B2, “Herbicidal compositions containing N-(1,3,4-oxadiazol-2-yl)-aryl carboxylic acid amides” (BAYER CROPSCIENCE AKTIENGESELLSCHAFT, priority 2013, dated 2018).

Tests used:
Type in all cases: in vivo
Solanum nigrum (SOLNI) = test: greenhouse post-emergence herbicidal efficacy against SOLNI
In short: (§1)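 Visual ratings (0% no effect, 100% complete kill) at 14 and 21 days after a post-emergence spray of 300 L/ha onto pot-grown weeds under greenhouse conditions. Mixtures and single active ingredients both tested. Differences from Colby-expected values, E^C=A+B−A×B/100, classify interactions as synergistic, additive or antagonistic.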

Avena fatua (AVEFA) = test: greenhouse post-emergence herbicidal efficacy against AVEFA
In short: (§2)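 Seeds were sown in 8 cm pots of sandy loam and germinated under optimal conditions. Compositions or single active ingredients were sprayed post-emergence at 300 L/ha in the greenhouse. Visual % damage versus untreated plants (0% none, 100% complete kill) was scored 14 and 21 days after application, with Colby expected values (E^C=A+B−A×B/100) used to judge synergism.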

DIGSA = test: greenhouse post-emergence herbicidal efficacy against DIGSA
In short: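 Pot-grown plants in sandy loam sprayed post-emergence at 300 L/ha in the greenhouse, with compositions or single active ingredients. Damage scored visually against untreated plants 14 and 21 days after application (0% none, 100% complete kill); combination interactions evaluated by Colby's expected-value formula.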

[1] = system: Polygonum convolvulus (POLCO); test: greenhouse post-emergence herbicidal efficacy against POLCO
In short: as §2

[2] = system: Chenopodium album (CHEAL); test: greenhouse post-emergence herbicidal efficacy against CHEAL
In short: as §1

[3] = system: Amaranthus retroflexus (AMARE); test: greenhouse post-emergence herbicidal efficacy against AMARE
In short: as §1

Bromus sterilis (BROST) = test: greenhouse post-emergence herbicidal efficacy against BROST; details: 21 days after application
In short: as §2

Setaria viridis (SETVI) = test: greenhouse post-emergence herbicidal efficacy against SETVI
In short: as §1

Kochia scoparia (KCHSC) = test: greenhouse post-emergence herbicidal efficacy against KCHSC
In short: as §1

[4] = system: Lolium multiflorum (LOLMU); test: greenhouse post-emergence herbicidal efficacy against LOLMU
In short: as §2

Poa annua (POAAN) = test: greenhouse post-emergence herbicidal efficacy against POAAN
In short: as §2

Galium aparine (GALAP) = test: greenhouse post-emergence herbicidal efficacy against GALAP; details: for Efficacy: 14 days after application
In short: as §2

[5] = system: Matricaria inodora (MATIN); test: greenhouse post-emergence herbicidal efficacy against MATIN; details: 14 days after application
In short: as §2

Eleusine indica (ELEIN) = test: greenhouse post-emergence herbicidal efficacy against ELEIN
In short: as §1

Phalaris minor (PHAMI) = test: greenhouse post-emergence herbicidal efficacy against PHAMI
In short: as §2

[6] = system: Echinochloa crus-galli (ECHCG); test: greenhouse post-emergence herbicidal efficacy against ECHCG
In short: as §1

[7] = 14 days after application, 0.5 g of a.i./ha
[8] = 14 days after application, 2 g of a.i./ha
[9] = 21 days after application, 0.5 g of a.i./ha
[10] = 21 days after application, 2 g of a.i./ha
[11] = 14 days after application, g of a.i./ha: A1-7 2.5, saflufenacil 2
[12] = 14 days after application, g of a.i./ha: A1-7 2.5, saflufenacil 8
[13] = 14 days after application, 0.1 g of a.i./ha
[14] = 14 days after application, 0.4 g of a.i./ha
[15] = 21 days after application, 0.4 g of a.i./ha
[16] = 14 days after application, 2.5 g of a.i./ha
[17] = 14 days after application, 10 g of a.i./ha
[18] = 21 days after application, dosage 10 g of a.i./ha
[19] = 21 days after application, g of a.i./ha: A1-13 2.5, mesosulfuron-methyl 10
[20] = 21 days after application, g of a.i./ha: A1-13 2.5, indaziflam 40
[21] = 21 days after application, g of a.i./ha: A1-13 10, indaziflam 40
[22] = 21 days after application, g of a.i./ha: A1-13 10, mesosulfuron-methyl 10
[23] = g of a.i./ha: A1-13 2.5, indaziflam 10
[24] = g of a.i./ha: A1-13 10, indaziflam 10
[25] = 21 days after application, 0.1 g of a.i./ha
[26] = 21 days after application; 0.1 g of a.i./ha
[27] = 21 days after application; 0.4 g of a.i./ha
[28] = 14 days after application, 5 g of a.i./ha
[29] = 14 days after application, 20 g of a.i./ha
[30] = 21 days after application, 5 g of a.i./ha
[31] = 21 days after application, 20 g of a.i./ha
[32] = 14 days after application; 5 g of a.i./ha
[33] = 14 days after application; 20 g of a.i./ha
[34] = 21 days after application; 5 g of a.i./ha
[35] = 21 days after application; 20 g of a.i./ha

CCS(=O)(=O)c1c(C(F)(F)F)ccc(C(=O)Nc2nnc(C)o2)c1Cl [A1-7]
Efficacy (Solanum nigrum (SOLNI); [7]): 10% | Efficacy (Solanum nigrum (SOLNI); [8]): 20% | Efficacy (Solanum nigrum (SOLNI); [9]): 0% | Efficacy (Solanum nigrum (SOLNI); [10]): 10% | Efficacy (Avena fatua (AVEFA); [11]): 15% | Efficacy (DIGSA; [8]): 20% | Efficacy (DIGSA; [10]): 10% | Efficacy [1, 11]: 10% | Efficacy [1, 12]: 10% | Efficacy ([1]; 14 days after application, g of a.i./ha: A1-7 10, saflufenacil 2): 25% | Efficacy ([1]; 14 days after application, g of a.i./ha: A1-7 10, saflufenacil 8): 25% | Efficacy ([1]; 21 days after application, g of a.i./ha: A1-7 2.5, saflufenacil 2): 0% | Efficacy ([1]; 21 days after application, g of a.i./ha: A1-7 2.5, saflufenacil 8): 0% | Efficacy ([1]; 21 days after application, g of a.i./ha: A1-7 10, saflufenacil 2): 10% | Efficacy ([1]; 21 days after application, g of a.i./ha: A1-7 10, saflufenacil 8): 10% | Efficacy [2, 7]: 0% | Efficacy [2, 8]: 50% | Efficacy [2, 9]: 10% | Efficacy [2, 10]: 20% | Efficacy [3, 7]: 30% | Efficacy (Bromus sterilis (BROST); g of a.i./ha: A1-7 10, saflufenacil 8): 5% | Efficacy (Setaria viridis (SETVI); [9]): 30% | Efficacy (Setaria viridis (SETVI); [10]): 75% | Efficacy (Kochia scoparia (KCHSC); [7]): 0% | Efficacy (Kochia scoparia (KCHSC); [9]): 10% | Efficacy [4, 11]: 0% | Efficacy [4, 12]: 0%

Cc1nnc(NC(=O)c2ccc(C(F)(F)F)c(S(C)(=O)=O)c2C)o1 [A1-13]
Efficacy (Solanum nigrum (SOLNI); [13]): 10% | Efficacy (Solanum nigrum (SOLNI); [14]): 20% | Efficacy (Solanum nigrum (SOLNI); [15]): 10% | Efficacy (Poa annua (POAAN); [16]): 20% | Efficacy (Poa annua (POAAN); [17]): 40% | Efficacy against POAAN (Poa annua (POAAN); [18]): 20% | Efficacy (Poa annua (POAAN); [19]): 10% | Efficacy (Avena fatua (AVEFA); [17]): 35% | Efficacy (Avena fatua (AVEFA); [20]): 0% | Efficacy (Avena fatua (AVEFA); [19]): 0% | Efficacy (Avena fatua (AVEFA); [21]): 3% | Efficacy (Avena fatua (AVEFA); [22]): 3% | Efficacy (Galium aparine (GALAP); 10 g of a.i./ha): 50% | Efficacy (Galium aparine (GALAP); [23]): 40% | Efficacy (Galium aparine (GALAP); g of a.i./ha: A1-13 10, indaziflam 40): 50% | Efficacy against GALAP (Galium aparine (GALAP); [18]): 60% | Efficacy ([5]; 2.5 g of a.i./ha): 30% | Efficacy ([5]; 10 g of a.i./ha): 40% | Efficacy [5, 23]: 30% | Efficacy [5, 24]: 40% | Efficacy (DIGSA; [14]): 0% | Efficacy [1, 19]: 0% | Efficacy [1, 22]: 0% | Efficacy (Eleusine indica (ELEIN); [14]): 20% | Efficacy (Eleusine indica (ELEIN); [25]): 0% | Efficacy (Eleusine indica (ELEIN); [15]): 10% | Efficacy (Eleusine indica (ELEIN); [26]): 0% | Efficacy (Eleusine indica (ELEIN); [27]): 10% | Efficacy [2, 13]: 0% | Efficacy [2, 14]: 10% | Efficacy [2, 25]: 0% | Efficacy [3, 14]: 0% | Efficacy [3, 15]: 10% | Efficacy (Bromus sterilis (BROST); g of a.i./ha: A1-13 2.5, mesosulfuron-methyl 2.5): 0% | Efficacy (Bromus sterilis (BROST); g of a.i./ha: A1-13 2.5, mesosulfuron-methyl 10): 0% | Efficacy (Bromus sterilis (BROST); [24]): 5% | Efficacy (Bromus sterilis (BROST); g of a.i./ha: A1-13 10, mesosulfuron-methyl 10): 5% | Efficacy (Phalaris minor (PHAMI); [16]): 30% | Efficacy (Phalaris minor (PHAMI); [17]): 30% | Efficacy (Phalaris minor (PHAMI); 14 days after application, g of a.i./ha: A1-13 2.5, indaziflam 40): 30% | Efficacy (Phalaris minor (PHAMI); 14 days after application, g of a.i./ha: A1-13 10, indaziflam 40): 30% | Efficacy (Phalaris minor (PHAMI); [20]): 15% | Efficacy (Phalaris minor (PHAMI); 21 days after application, g of a.i./ha: A1-13 2.5, mesosulfuron-methyl 2.5): 15% | Efficacy (Phalaris minor (PHAMI); [19]): 15% | Efficacy (Phalaris minor (PHAMI); [21]): 20% | Efficacy (Phalaris minor (PHAMI); [22]): 20% | Efficacy (Setaria viridis (SETVI); [13]): 0% | Efficacy (Setaria viridis (SETVI); [14]): 10% | Efficacy (Setaria viridis (SETVI); [25]): 0% | Efficacy (Setaria viridis (SETVI); [15]): 10% | Efficacy (Setaria viridis (SETVI); [26]): 0% | Efficacy (Setaria viridis (SETVI); [27]): 10% | Efficacy [6, 13]: 0% | Efficacy [6, 14]: 0% | Efficacy [6, 25]: 0% | Efficacy [6, 15]: 0% | Efficacy [6, 26]: 0% | Efficacy [6, 27]: 0% | Efficacy (Kochia scoparia (KCHSC); [13]): 0% | Efficacy (Kochia scoparia (KCHSC); [14]): 0% | Efficacy (Kochia scoparia (KCHSC); [15]): 0% | Efficacy (Kochia scoparia (KCHSC); [26]): 0% | Efficacy (Kochia scoparia (KCHSC); [27]): 0% | Efficacy ([4]; 21 days after application, g of a.i./ha: A1-13 10, indaziflam 10): 5% | Efficacy [4, 22]: 5%

CSc1nnc(C(C)(C)C)c(=O)n1N [metribuzin]
Efficacy (Solanum nigrum (SOLNI); [28]): 0% | Efficacy (Solanum nigrum (SOLNI); [29]): 0% | Efficacy (Solanum nigrum (SOLNI); [30]): 0% | Efficacy (Solanum nigrum (SOLNI); [31]): 0% | Efficacy (DIGSA; [28]): 0% | Efficacy (DIGSA; [29]): 20% | pest or weed control at 5 g/ha (Eleusine indica (ELEIN); Eleusine indica, post-emergence, 336 h; 14 days after application, 5 g of a.i./ha): 10% | pest or weed control at 20 g/ha (Eleusine indica (ELEIN); Eleusine indica, post-emergence, 336 h; 14 days after application, 20 g of a.i./ha): 20% | pest or weed control at 5 g/ha (Eleusine indica (ELEIN); Eleusine indica, post-emergence, 504 h; 21 days after application; 5 g of a.i./ha): 0% | pest or weed control at 20 g/ha (Eleusine indica (ELEIN); Eleusine indica, post-emergence, 504 h; 21 days after application; 20 g of a.i./ha): 0% | Efficacy [2, 28]: 30% | Efficacy [2, 29]: 30% | Efficacy [2, 30]: 20% | Efficacy [2, 31]: 20% | Efficacy [3, 28]: 20% | Efficacy [3, 29]: 30% | Efficacy [3, 30]: 0% | Efficacy [3, 31]: 10% | Efficacy (Setaria viridis (SETVI); [32]): 10% | Efficacy (Setaria viridis (SETVI); [33]): 30% | Efficacy (Setaria viridis (SETVI); [34]): 0% | Efficacy (Setaria viridis (SETVI); [35]): 0% | Efficacy [6, 32]: 10% | Efficacy [6, 33]: 30% | Efficacy [6, 34]: 0% | Efficacy [6, 35]: 0% | Efficacy (Kochia scoparia (KCHSC); [32]): 20% | Efficacy (Kochia scoparia (KCHSC); [33]): 20% | Efficacy (Kochia scoparia (KCHSC); [34]): 0% | Efficacy (Kochia scoparia (KCHSC); [35]): 10%
